Results taken from patent US9669242B2, “Compositions containing at least two phenolic compounds, a lipid-soluble antioxidant and at least one hydrotrope for cosmetic use” (L'OREAL, priority 2013, dated 2017).
Where two headings read alike, the source gives them in different places. Values belong to the compound of their own block, whether it stands above or below them.

Experiments:
[1] = Solubility of phenolic compounds and caffeine in water without hydrotropes; conditions: for solubility: in water
Excerpt: Baicalin, a component of Chinese medicinal herb Huang-chin, is a flavone, a type of flavonoid.

[2] = Solubility of baicalin in organic solvent PEG-4; assay type: physicochemical
Excerpt: Crystallization or precipitation occurs after mixing the glycol phase and water phase.

[3] = Oxygen Radical Absorbance Capacity (ORAC) assay; assay type: biochemical; conditions: individual values, known activity of each antioxidant
[4] = HORAC assay (hydroxyl radical averting capacity); assay type: biochemical; conditions: individual values, known activity of each antioxidant
[5] = pH stability of baicalin in water; assay type: physicochemical
[6] = Solubility in water with hydrotropes (nicotinamide, caffeine); conditions: 5% nicotinamide and 5% caffeine

Compound: O=C(O)[C@H]1O[C@@H](Oc2cc3oc(-c4ccccc4)cc(=O)c3c(O)c2O)[C@H](O)[C@@H](O)[C@@H]1O [Baicalin]
solubility in water ([1]; at its natural pH ~4.5): < 0.01%
solubility ([1]; pH 3): 0.0016%
solubility ([1]; pH 3.5): 0.0021%
solubility ([1]; pH 4): 0.0040%
solubility ([1]; pH 4.5): 0.0084%
solubility ([1]; pH 5): 0.035%
water solubility ([1]; no hydrotrope): < 0.01%
Solubility in water without hydrotropes ([1]; without hydrotropes): <0.01 % (w/w)
baicalin dissolved by PEG-4 [2]: 3%
ORAC [3]: 4759 μmolTE/g
HORAC [4]: 2592 μmolGAE/g
pH at which degradation happens [5]: > 5

Compound: O=c1oc2c(O)c(O)cc3c(=O)oc4c(O)c(O)cc1c4c23 [Ellagic acid]
Solubility in water without hydrotropes [1]: <0.001 % (w/w)

Compound: tocopherol [VIT. E (tocopherol)]
ORAC [3]: 1000 μmolTE/g

More lines, now with the values ahead:

Solubility in water without hydrotropes [1]: <0.05 % (w/w)
Compound: COc1ccc([C@@H]2CC(=O)c3c(O)cc(O[C@@H]4O[C@H](CO)[C@@H](O)[C@H](O)[C@H]4O[C@@H]4O[C@@H](C)[C@H](O)[C@@H](O)[C@H]4O)cc3O2)cc1O [Neohesperidin]

Solubility in water without hydrotropes [1]: <0.005 % (w/w)
Compound: Oc1ccc(C=Cc2cc(O)cc(O)c2)cc1 [Resveratrol]

Solubility in water without hydrotropes ([1]; without hydrotropes): <0.1 % (w/w)
Solubility in water with hydrotropes [6]: >1 % (w/w)
Compound: O=C1c2c(O)cc(O)cc2O[C@H](c2ccc(O)c(O)c2)[C@H]1O [Taxifolin]
